According to the supplement of paper PMC10933113:
Where a name gives a salt, the structure may show the parent alone. ± gives the uncertainty stated by the source.

Legend:
[1] = test system: cysteine peptide Ac-RFAACAA-COOH; test: efficacy of cysteine peptide change (negative = depletion) (% activity); higher = less depletion; conditions: incubation time: 24 h
THP-1 [2] = test: AC50 of IL-8 secretion induction; higher = less potent; conditions: exposure time: 18 h
[3] = test system: KeratinoSens (HaCaT ARE-luciferase) cells; test: cytotoxicity AC50 (CellTiter-Fluor viability); higher = less cytotoxic; conditions: exposure time: 24 h
[4] = test system: lysine peptide Ac-RFAAKAA-COOH; test: efficacy of lysine peptide change (negative = depletion) (% activity); higher = less depletion; conditions: incubation time: 24 h
[5] = test system: KeratinoSens (HaCaT ARE-luciferase) cells; test: efficacy of ARE luciferase induction relative to DMSO (% activity over DMSO); higher = stronger induction; conditions: exposure time: 24 h
THP-1 [6] = test: efficacy of IL-8 induction relative to DMSO (% activity); higher = stronger induction; conditions: exposure time: 18 h
[7] = test system: cysteine peptide Ac-RFAACAA-COOH; test: AC50 of cysteine peptide concentration-response (direction given by sign of efficacy); higher = less potent; conditions: incubation time: 24 h
[8] = test system: KeratinoSens (HaCaT ARE-luciferase) cells; test: AC50 of Nrf2/ARE luciferase induction; higher = less potent; conditions: exposure time: 24 h

Compound	efficacy of cysteine peptide change [1]	AC50 of IL-8 secretion induction (THP-1 [2]) [µM]	cytotoxicity AC50 [3] [µM]	efficacy of lysine peptide change [4]	efficacy of ARE luciferase induction [5]	efficacy of IL-8 induction (THP-1 [6])	AC50 [7] [µM]	AC50 of Nrf2/ARE luciferase induction [8] [µM]
Clc1nc(C(Cl)(Cl)Cl)c(Cl)c(Cl)c1Cl [2,3,4,5-Tetrachloro-6-(trichloromethyl)pyridine]	-2.03 ± 3.5	47.3	37.1 ± 4.7	1.85 ± 3.2	43.7 ± 28	33.7 ± 5.8	–	–
O=[N+]([O-])c1cc(C(F)(F)F)c(Cl)c([N+](=O)[O-])c1Cl [2,4-Dichloro-1,3-dinitro-5-(trifluoromethyl)benzene]	-83.7 ± 9	17.2	26.1 ± 1.8	251 ± 34	-10.8 ± 42	64.7 ± 13	23.8 ± 18	–
c1ccc2sc(SSN3CCOCC3)nc2c1 [2-(Morpholin-4-yldithio)-1,3-benzothiazole]	–	59.9	–	–	57.3 ± 29	58 ± 8.8	–	–
Sc1nc2ccccc2s1 [2-Mercaptobenzothiazole]	-86.4 ± 10	28.3	–	40.3 ± 17	87.1 ± 23	21.3 ± 41	32.9 ± 2.2	20.7
Cn1sccc1=O [2-Methyl-4-isothiazolin-3-one hydrochloride]	-98.5 ± 3.1	35.9	25.2 ± 2.9	-0.97 ± 8.8	118 ± 32	50.4 ± 5.3	2.42 ± 0.16	13.7
c1csc(SSc2cccs2)c1 [2-Thienyl disulfide]	-94.7 ± 2.8	82.7	41.4 ± 2.8	-11.6 ± 10	126 ± 80	81.3 ± 8.7	1.04 ± 0.07	33.5
CCN(CC)c1ccc(C(=O)c2ccccc2C(=O)O)c(O)c1 [2-[4-(Diethylamino)-2-hydroxybenzoyl]benzoic acid]	1.78 ± 13	38.4	30.5 ± 2	-5.24 ± 15	56.6 ± 46	75.5 ± 11	–	–
c1cc(N(CC2CO2)CC2CO2)ccc1Cc1ccc(N(CC2CO2)CC2CO2)cc1 (centres undefined) [4,4'-Methylenebis(N,N-diglycidylaniline)]	–	37.1	35.5	–	57 ± 38	103 ± 16	–	15.8
CCCCCCCCn1sc(Cl)c(Cl)c1=O [4,5-Dichloro-2-octyl-3(2H)-isothiazolone]	-98.9 ± 3.5	11.7	12.1 ± 0.79	-94.5 ± 3.8	-41.3 ± 5.3	50.1 ± 4.7	0.88 ± 0.21	–
c1cc(N(CC2CO2)CC2CO2)ccc1OCC1CO1 (centres undefined) [4-(Diglycidylamino)phenyl glycidyl ether]	-36.5 ± 12	76.9	63.9 ± 12	41.8 ± 1.5	103 ± 58	62.3 ± 18	20.3 ± 16	32.9
CNc1ccc(O)cc1 [4-(Methylamino)phenol Sulfate]	-82.7 ± 14	46.7	27.3 ± 3.8	-10.9 ± 3	65.8 ± 4.2	8.27 ± 13	0.16 ± 0.06	–
O=c1cc(-c2ccccc2)oc2ccc3ccccc3c12 [5,6-Benzoflavone]	–	79.4	–	–	-34.9 ± 4.2	98 ± 14	–	–
Nc1ncn([C@@H]2O[C@H](CO)[C@@H](O)[C@H]2O)c(=O)n1 [5-Azacytidine]	4.3 ± 7.4	41.6	17.8 ± 6.3	6.9 ± 7.1	275 ± 140	55 ± 5.8	–	18.9
O=C(Nc1ccccc1)c1cc(Cl)ccc1O [5-Chlorosalicylanilide]	-46 ± 19	35.5	25.2 ± 2.9	77.4 ± 23	-20.1 ± 52	112 ± 7.5	–	–
CN(C)c1ccc(N(C)C)cc1 [*N,N,N',N'-Tetramethyl-p-phenylenediamine]	-93.1 ± 3.4	76.5	57 ± 12	-28.7 ± 13	98.6 ± 34	130 ± 7.7	3.26 ± 0.91	20.9
S=C=NCc1ccccc1 [BENZYL ISOTHIOCYANATE]	-57.9 ± 6.4	11.4	–	19.8 ± 9.3	278 ± 170	40.8 ± 25	34.2 ± 2.2	24.8
CC1COc2ccccc2N1C(=O)C(Cl)Cl (centres undefined) [Benoxacor]	5.74 ± 9.9	79.8	46.5 ± 3.1	9.43 ± 16	33.2 ± 15	136 ± 40	–	–
N=C1C=CC(=C(c2ccc(N)cc2)c2ccc(N)cc2)C=C1 [C.I. Basic Red 9 monohydrochloride]	-58.7 ± 20	44.7	34.2 ± 2.2	182 ± 33	38.6 ± 64	100 ± 9.3	38.4 ± 2.5	–
Oc1c(I)cc(Cl)c2cccnc12 [Clioquinol]	-68.8 ± 8.1	21.6	10.4 ± 1.3	-8.28 ± 7.3	87.3 ± 32	125 ± 14	1.52 ± 0.89	6.33
COc1cc(/C=C2\CCC/C(=C\c3ccc(O)c(OC)c3)C2=O)ccc1O [Cyclovalone]	-50.1 ± 12	40	22.5 ± 2.6	15.9 ± 15	242 ± 83	44.5 ± 6.9	0.87 ± 0.35	15.8
O=C1c2ccccc2C(=O)C1c1ccc2ccccc2n1 [D & C Yellow II]	-22.9 ± 5.9	38.4	28.2	-13.8 ± 13	68.8 ± 34	71.4 ± 9.3	–	11.6
CCS(=O)(=O)CCSP(=O)(OC)OC [Demeton-S-methylsulphon]	-43.5 ± 12	30.7	22.5 ± 2.6	-8 ± 20	28.1 ± 59	108 ± 5.1	–	19
CCC1OCC(COc2ccc(Oc3ccccc3)cc2)O1 (centres undefined) [Diofenolan]	8.44 ± 17	34.2	24.4 ± 4.2	0.82 ± 8.5	138 ± 84	113 ± 5.8	–	13.7
COC(=O)Nc1nc2cc(Sc3ccccc3)ccc2[nH]1 [Fenbendazole]	0	39.8	3.46 ± 1.9	33.8 ± 41	46 ± 53	213 ± 14	–	–
CC(C)=CCC1C(=O)N(c2ccccc2)N(c2ccccc2)C1=O [Feprazone]	-88.7 ± 16	85.9	40 ± 4.6	0	281 ± 320	60.5 ± 9.2	–	46
O=[N+]([O-])c1ccc(Oc2ccc(C(F)(F)F)cc2[N+](=O)[O-])cc1 [Fluorodifen]	-4.44 ± 7.7	43.1	29.6 ± 5.3	2.81 ± 12	45.8 ± 80	109 ± 12	–	–
c1coc(-c2nc3ccccc3[nH]2)c1 [Fuberidazole]	-100 ± 9.1	48.3	38.7 ± 6.6	-20.8 ± 15	96.2 ± 26	78.3 ± 0.93	12.3 ± 4.7	32

Compound	efficacy of cysteine peptide change [1]	AC50 of IL-8 secretion induction (THP-1 [2]) [µM]	cytotoxicity AC50 [3] [µM]	efficacy of lysine peptide change [4]	efficacy of ARE luciferase induction [5]	efficacy of IL-8 induction (THP-1 [6])	AC50 [7] [µM]	AC50 of Nrf2/ARE luciferase induction [8] [µM]
O=[N+]([O-])c1cc(N(CCO)CCO)ccc1NCCO [HC Blue 2]	-49.3 ± 1.9	66.8	–	0	0	38.4 ± 82	18.7 ± 3.4	–
CC(O)C#CC(C)O (centres undefined) [Hex-3-yne-2,5-diol]	-101 ± 4.2	41.4	32.9 ± 2.2	-5.13 ± 15	-35.2 ± 7.1	62.2 ± 17	4.16 ± 0.53	–
CN(C)c1ccc(C(=C2C=CC(=[N+](C)C)C=C2)c2ccccc2)cc1 [Malachite green oxalate*]	-94.9 ± 1.7	15.3	8.91	36.4 ± 15	-37.3 ± 7.1	47.7 ± 7.8	4.18 ± 2	–
CCCCNC(=S)NCCCC [N,N'-Dibutylthiourea]	-32.7 ± 21	89.1	62 ± 25	85.4 ± 13	41.8 ± 35	90.2 ± 38	–	–
S=C(NC1CCCCC1)NC1CCCCC1 [N,N'-Dicyclohexylthiourea]	5.83 ± 10	85.9	53.1 ± 25	-53.1 ± 24	82 ± 95	84.8 ± 36	–	–
c1ccc2sc(SNC3CCCCC3)nc2c1 [N-Cyclohexyl-2-benzothiazolesulfenamide]	-89.9 ± 7	85.9	–	24.6 ± 4.2	135 ± 140	101 ± 42	11.1 ± 3.1	–
N=C(N)NN=C(/C=C/c1ccc([N+](=O)[O-])o1)/C=C/c1ccc([N+](=O)[O-])o1 [Nitrovin]	-105 ± 8.6	11.6	6.97 ± 1.7	-31.7 ± 10	46.8 ± 140	63.3 ± 30	5.39 ± 1.6	–
C[C@@H]1O[C@@H](O[C@H]2C[C@@H](O)[C@]3(CO)[C@H]4[C@H](O)C[C@]5(C)[C@@H](C6=CC(=O)OC6)CC[C@]5(O)[C@@H]4CC[C@]3(O)C2)[C@H](O)[C@H](O)[C@H]1O [Ouabain]	3.17 ± 11	2.99	1.58	6.65 ± 12	220 ± 65	35.4 ± 9.9	–	0.96
CCCOc1ccc2[nH]c(NC(=O)OC)nc2c1 [Oxibendazole]	0	27.7	2.73 ± 0.38	50.4 ± 6.8	30.2 ± 9.6	36.3 ± 9.3	–	–
CCCCc1ccc2[nH]c(NC(=O)OC)nc2c1 [Parbendazole*]	-4.47 ± 11	38.4	5.79 ± 1.6	56 ± 8.1	66.8 ± 26	77.1 ± 5.2	–	21.1
C=CC(=O)OCC(COC(=O)C=C)(COC(=O)C=C)COC(=O)C=C [Pentaerythritol tetraacrylate]	-102 ± 14	–	25.3 ± 4.1	-27.5 ± 6	118 ± 5.8	23.5 ± 10	3.11 ± 0.76	15.8
O=C(/C=C/C=C/c1ccc2c(c1)OCO2)N1CCCCC1 [Piperine]	-72.8 ± 22	–	44 ± 11	1.32 ± 18	76 ± 12	13.7 ± 14	80.8 ± 18	29.1
O=C1OC(CCN2CCCCC2)OC1(c1ccccc1)c1ccccc1 (centres undefined) [Pipoxolan hydrochloride]	-104 ± 2.6	–	33.5 ± 2.7	-49.6 ± 25	107 ± 83	0	4.43 ± 1.9	20.7
COc1cccc2c1C(=O)c1c(O)c3c(c(O)c1C2=O)C[C@@](O)(C(=O)CO)C[C@@H]3O[C@H]1C[C@H](N)[C@H](O[C@@H]2CCCCO2)[C@H](C)O1 [Pirarubicin*]	-101 ± 3.8	–	17.9 ± 6.5	-33.9 ± 4.4	638 ± 360	21.1 ± 6.6	3.01 ± 1.5	20.5
Nc1ccc2cc3ccc(N)cc3nc2c1 [Proflavin hemisulfate#]	88.8 ± 300	35.5	–	115 ± 4.9	390 ± 270	68 ± 3.1	11.9 ± 20	7.94
CCCSS/C(CCO)=C(/C)N(C=O)Cc1cnc(C)nc1N [Prosultiamine]	-112 ± 9.3	–	26.1 ± 1.8	154 ± 29	433 ± 21	30.5 ± 12	1.59 ± 0.18	15.8
CC(C)OC(=S)S [Proxan-sodium]	-94.2 ± 20	35.9	37.3 ± 6.7	10.8 ± 20	59.5 ± 100	59.9 ± 7.8	73.6 ± 37	–
O=C(N/N=C/c1ccccc1O)c1ccncc1 [Salinazid]	-3.5 ± 6.1	20	4.76 ± 1.3	16.7 ± 23	-34.3 ± 30	45.6 ± 14	–	–
CC(C)CP(=S)(S)CC(C)C [Sodium bis(2-methylpropyl)phosphinodithioate]	-92.6 ± 1.4	38.4	21.1 ± 9.9	108 ± 18	168 ± 27	82.4 ± 10	76.5 ± 25	–
O=C(Nc1ncc([N+](=O)[O-])s1)c1cccs1 [Tenonitrozole]	-93.3 ± 27	–	12.7 ± 2	33.7 ± 8.7	27.5 ± 48	6.75 ± 5.9	96.8 ± 13	8.8
O=c1[nH]sc2cc(Cl)ccc12 [Ticlatone]	-90.5 ± 5.6	21.6	13.2 ± 2.4	-0.22 ± 12	55.4 ± 80	92.2 ± 7.7	0.65 ± 0.18	–
Cc1ccc(O)c2ncccc12 [Tiliquinol]	-11.2 ± 4.1	4.38	2.47 ± 0.62	-8.95 ± 16	-35.2 ± 3.8	117 ± 19	–	–
O=c1n(CC2CO2)c(=O)n(CC2CO2)c(=O)n1CC1CO1 (centres undefined) [Triglycidyl isocyanurate]	-3.96 ± 6.9	36.9	28.3 ± 3.2	35 ± 20	90.3 ± 20	157 ± 24	–	14.1
[Cl][Bi]([Cl])([c]1ccccc1)([c]1ccccc1)[c]1ccccc1 [Triphenylbismuthine dichloride]	-96.9 ± 5.6	–	28.2	23.5 ± 22	95.5 ± 39	92.2 ± 110	0.85 ± 0.38	14.2
Cc1cc(C2(c3cc(C)c(O)cc3C)OS(=O)(=O)c3ccccc32)c(C)cc1O [p-Xylenol blue]	-13.7 ± 2.3	52.2	28.6 ± 6	121 ± 16	0	45.6 ± 8.1	–	–
CC(C)(C)c1cc(O)ccc1O [tert-Butylhydroquinone]	-112 ± 5.2	39.8	–	-30.8 ± 9.1	293 ± 55	114 ± 90	34.8 ± 13	33
